Source: US11382956B2, “Amylin analogues” (Zealand Pharma A/S, priority 2016, dated 2022)
pEC50: −log10 of the molar value. Numbered stars: 1 amine (or outer) side, 2 acyl side, 3 side chain; on linkers, the order of the positions; unused ones are H or OH. Bridge positions count the residues as written; N and C are the ends. Square brackets hold non-standard residues; d marks the D form. Peptide text beside a SMILES is read from it. * marks the point of attachment. C20 diacid = O=C(O)CCCCCCCCCCCCCCCCCCC(=O)*; γGlu = O=C(O)[C@H](CCC(=O)[*:2])N[*:1]; Hyp = O=C(O)[C@@H]1C[C@@H](O)CN1; NMeI = CC[C@H](C)[C@H](NC)C(=O)O; Aad = N[C@@H](CCCC(=O)O)C(=O)O; Orn = NCCC[C@H](N)C(=O)O; Dab = NCC[C@H](N)C(=O)O; Dap = NC[C@H](N)C(=O)O; Sar = CNCC(=O)O

Tests used:
[1] = biological target: T1, recombinant human amylin 3 receptor (hAMYR3) (Homo sapiens, UniProt O60896+P30988); test: hAMYR3 cAMP assay (AlphaScreen) in 1321N1 cells; type: cell-based; settings: cAMP formation, 45 min stimulation
T1 construct: host or cells: human astrocytoma cell line 1321N1
T1 sequence (P30988 25-474): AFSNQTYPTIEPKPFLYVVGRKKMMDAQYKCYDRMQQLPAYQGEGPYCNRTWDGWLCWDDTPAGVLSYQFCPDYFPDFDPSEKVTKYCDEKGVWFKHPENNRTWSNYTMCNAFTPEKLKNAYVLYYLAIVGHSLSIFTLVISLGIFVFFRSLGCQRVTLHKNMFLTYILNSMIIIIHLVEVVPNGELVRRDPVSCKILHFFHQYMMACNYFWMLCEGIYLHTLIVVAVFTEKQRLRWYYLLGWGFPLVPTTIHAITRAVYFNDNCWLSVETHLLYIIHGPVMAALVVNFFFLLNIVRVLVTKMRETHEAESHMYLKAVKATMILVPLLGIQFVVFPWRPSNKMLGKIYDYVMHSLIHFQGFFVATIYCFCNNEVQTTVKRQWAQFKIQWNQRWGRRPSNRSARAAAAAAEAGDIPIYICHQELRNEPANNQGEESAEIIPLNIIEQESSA
T1 sequence (O60896 24-148 partner): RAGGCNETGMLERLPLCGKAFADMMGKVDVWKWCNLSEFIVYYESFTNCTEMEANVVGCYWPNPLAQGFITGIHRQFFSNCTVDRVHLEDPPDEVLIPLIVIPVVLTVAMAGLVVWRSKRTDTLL
Excerpt: (§1) For the assessment of the in vitro activity of test peptides, cell lines expressing recombinant human calcitonin receptor (hCT-R) or recombinant human amylin 3 receptor (hAMYR3) in the background of the human astrocytoma cell line 1321N1 were purchased from DiscoveRx Corporation (Cat. No. 95-016106 and 95-0166C6). The hAMYR3 is a hetero-oligomer of the calcitonin receptor (Isoform 2; Gene ID 799) and RAMPS (Gene ID 10268) that forms when both genes are expressed in the same cell. The hCT-R cell line expresses only the recombinant human calcitonin receptor gene (Isoform 2; Gene ID 799). Upon activation of hCT-R or hAMYR3 by the test peptides the formation of cAMP is induced and was measured using the AlphaScreen® cAMP Assay kit from Perkin-Elmer (Cat. No. 6760635R).
(§2) Briefly, 1321N1 cells expressing hCT-R or hAMYR3 were seeded in 384-well microtiter plates (Falcon Optilux White, Cat.-No. 10448642) at 5,000 cells in […] growth medium per well (AssayComplete 1321N1 Cell Culture Kit, DiscoveRx Corp.), and incubated for 24 h at 37° C., 5% CO2. On the day of analysis growth medium was removed and the cells were stimulated by adding 10 μL of stimulation buffer (10 […], 0.1% BSA) containing increasing concentrations of test peptides, and incubation for 45 min at room temperature. The stimulation was stopped by adding 5.6 μL/well donor bead detection mix (5 mM Hepes pH7.4, 0.5% TWEEN 20, 0.1% BSA, 0.05 mg/mL donor beads, 62.5 nM biotinylated cAMP) and 4.5 μL/well acceptor bead solution (5 mM Hepes pH7.4, 0.5% TWEEN 20, 0.1% BSA, 0.05 mg/mL acceptor beads). After thorough mixing the plates were incubated in the dark for 1 h at room temperature and the cAMP content of the resulting cell lysates was estimated according to the AlphaScreen® cAMP Assay manufacturer's instructions. EC50 values were estimated by computer-aided curve fitting of results of at least 7 different compound concentrations.

[2] = biological target: T2, recombinant human calcitonin receptor (hCT-R) (Homo sapiens, UniProt P30988); test: hCT-R cAMP assay (AlphaScreen) in 1321N1 cells; type: cell-based; settings: cAMP formation, 45 min stimulation
T2 construct: host or cells: human astrocytoma cell line 1321N1
T2 sequence (P30988 25-474): T1 sequence (P30988 25-474)
Excerpt: as §1, §2

[3] = Assessment of chemical stability in 40 mM buffers at 40° C. (RP-HPLC); type: physicochemical; settings: 1 mg/mL
Description: Samples of each test peptide were dissolved in acetate buffer pH 4 and phosphate buffer pH 6 and 7 (all buffer 40 mM). The final peptide concentration was 1 mg/mL. Samples were placed in glass vials and incubated at 40° C. The samples were analyzed by RP-HPLC on a C8 column with gradient elution using a trifluoroacetic acid/acetonitrile/water eluent system. The area-percentage (area-%) of the main peak was determined by UV spectroscopy at 220 nm at each sampling time point.
The % degradation was calculated by subtracting the […].
The results of the chemical stability assessment after 3 days of incubation time are summarized as % degradation in Table 1 (below).
The results of the chemical stability assessment after 14 days of incubation time are summarized as % degradation in Table 2 (below).

pEC50 [1]	pEC50 [2]	% degradation after 14 days at 40° C. pH4 acetate ([3]; acetate buffer pH 4, 14 days)	% degradation after 14 days at 40° C. pH6 phosphate ([3]; phosphate buffer pH 6, 14 days)	% degradation after 14 days at 40° C. pH7 phosphate ([3]; phosphate buffer pH 7, 14 days)	Molecule
10.49	9.94	–	–	–	CC[C@H](C)[C@@H](C(=O)N1CCC[C@H]1C(=O)N[C@@H](CO)C(=O)N[C@@H](CO)C(=O)N[C@H](C(=O)N[C@@H](CCC(=O)O)C(=O)N[C@H](C(=O)NCC(=O)N[C@@H](CO)C(=O)N[C@@H](CC(N)=O)C(=O)N[C@H](C(=O)N1C[C@H](O)C[C@H]1C(N)=O)[C@@H](C)O)C(C)C)[C@@H](C)O)N(C)C(=O)[C@H](C)NC(=O)CN(C)C(=O)[C@H](Cc1ccccc1)NC(=O)[C@H](CO)NC(=O)[C@H](CO)NC(=O)[C@H](CCCNC(=N)N)NC(=O)[C@H](CCC(N)=O)NC(=O)[C@H](CC(C)C)NC(=O)[C@H](Cc1ccccc1)NC(=O)[C@H](Cc1c[nH]cn1)NC(=O)[C@H](C)NC(=O)[C@H](CC(C)C)NC(=O)[C@H](CCCNC(=N)N)NC(=O)[C@H](CCC(=O)O)NC(=O)[C@@H](NC(=O)[C@H](C)NC(=O)[C@@H]1CCCNC(=O)C[C@H](NC(=O)[C@H](CCCNC(=N)N)NC(=O)CC[C@H](NC(=O)CCCCCCCCCCCCCCCCCCC(=O)O)C(=O)O)C(=O)NCC(=O)N[C@@H]([C@@H](C)O)C(=O)N[C@@H](C)C(=O)N[C@@H]([C@@H](C)O)C(=O)N1)[C@@H](C)O [Compound 5, [19CD]-isoGlu-RD()GTAT-Orn()-ATERLAHFLQRSSF-Gly(Me)-A-Ile(Me)-PSSTEVGSNT-Hyp-NH2] ({C20 diacid-γGlu}-RDGTAT[Orn]ATERLAHFLQRSSF[Sar]A[NMeI]PSSTEVGSNT[Hyp]-NH2; lactam 2-7)
10.89	10.42	–	–	–	CC[C@H](C)[C@@H](C(=O)N1CCC[C@H]1C(=O)N[C@@H](CO)C(=O)N[C@@H](CO)C(=O)N[C@H](C(=O)N[C@@H](CCC(=O)O)C(=O)N[C@H](C(=O)NCC(=O)N[C@@H](CO)C(=O)N[C@@H](CC(N)=O)C(=O)N[C@H](C(=O)N1C[C@H](O)C[C@H]1C(N)=O)[C@@H](C)O)C(C)C)[C@@H](C)O)N(C)C(=O)[C@H](C)NC(=O)CN(C)C(=O)[C@H](Cc1ccccc1)NC(=O)[C@@H](NC(=O)[C@@H](NC(=O)[C@H](CCCNC(=N)N)NC(=O)[C@H](CCC(N)=O)NC(=O)[C@H](CC(C)C)NC(=O)[C@H](Cc1ccccc1)NC(=O)[C@H](CCCC(=O)O)NC(=O)[C@H](C)NC(=O)[C@H](CC(C)C)NC(=O)[C@H](CCCNC(=N)N)NC(=O)[C@H](CCC(=O)O)NC(=O)[C@@H](NC(=O)[C@H](C)NC(=O)[C@@H]1CCCNC(=O)C[C@H](NC(=O)[C@H](CCCNC(=N)N)NC(=O)CC[C@H](NC(=O)CCCCCCCCCCCCCCCCCCC(=O)O)C(=O)O)C(=O)NCC(=O)N[C@@H]([C@@H](C)O)C(=O)N[C@@H](C)C(=O)N[C@@H]([C@@H](C)O)C(=O)N1)[C@@H](C)O)[C@@H](C)O)[C@@H](C)O [Compound 24, [19CD]-isoGlu-RD()GTAT-Orn()-ATERLA-Aad-FLQRTTF-Gly(Me)-A-Ile(Me)-PSSTEVGSNT-Hyp-NH2] ({C20 diacid-γGlu}-RDGTAT[Orn]ATERLA[Aad]FLQRTTF[Sar]A[NMeI]PSSTEVGSNT[Hyp]-NH2; lactam 2-7)

The remaining lines, values behind:

Molecule	pEC50 [1]	pEC50 [2]	% degradation after 14 days at 40° C. pH4 acetate ([3]; acetate buffer pH 4, 14 days)	% degradation after 14 days at 40° C. pH6 phosphate ([3]; phosphate buffer pH 6, 14 days)	% degradation after 14 days at 40° C. pH7 phosphate ([3]; phosphate buffer pH 7, 14 days)
CC[C@H](C)[C@@H](C(=O)N[C@@H](CC(C)C)C(=O)N[C@@H](CO)C(=O)N[C@@H](CO)C(=O)N[C@H](C(=O)N[C@@H](CCC(=O)O)C(=O)N[C@H](C(=O)NCC(=O)N[C@@H](CO)C(=O)N[C@@H](CC(N)=O)C(=O)N[C@H](C(=O)N1C[C@H](O)C[C@H]1C(N)=O)[C@@H](C)O)C(C)C)[C@@H](C)O)N(C)C(=O)[C@H](C)NC(=O)CN(C)C(=O)[C@H](Cc1ccccc1)NC(=O)[C@H](CO)NC(=O)[C@H](CO)NC(=O)[C@H](CCCNC(=N)N)NC(=O)[C@H](CCC(N)=O)NC(=O)[C@H](CC(C)C)NC(=O)[C@H](Cc1ccccc1)NC(=O)[C@H](Cc1c[nH]cn1)NC(=O)[C@H](C)NC(=O)[C@H](CC(C)C)NC(=O)[C@H](CCCNC(=N)N)NC(=O)[C@H](CCC(=O)O)NC(=O)[C@@H](NC(=O)[C@H](C)NC(=O)[C@@H]1CNC(=O)C[C@H](NC(=O)[C@H](CCCNC(=N)N)NC(=O)CC[C@H](NC(=O)CCCCCCCCCCCCCCCCCCC(=O)O)C(=O)O)C(=O)NCC(=O)N[C@@H]([C@@H](C)O)C(=O)N[C@@H](C)C(=O)N[C@@H]([C@@H](C)O)C(=O)N1)[C@@H](C)O [Compound 1, [19CD]-isoGlu-RD()GTAT-Dap()-ATERLAHFLQRSSF-Gly(Me)-A-Ile(Me)-LSSTEVGSNT-Hyp-NH2] ({C20 diacid-γGlu}-RDGTAT[Dap]ATERLAHFLQRSSF[Sar]A[NMeI]LSSTEVGSNT[Hyp]-NH2; lactam 2-7)	8.03	7.87	–	–	–
CC[C@H](C)[C@@H](C(=O)N[C@@H](CC(C)C)C(=O)N[C@@H](CO)C(=O)N[C@@H](CO)C(=O)N[C@H](C(=O)N[C@@H](CCC(=O)O)C(=O)N[C@H](C(=O)NCC(=O)N[C@@H](CO)C(=O)N[C@@H](CC(N)=O)C(=O)N[C@H](C(=O)N1C[C@H](O)C[C@H]1C(N)=O)[C@@H](C)O)C(C)C)[C@@H](C)O)N(C)C(=O)[C@H](C)NC(=O)CN(C)C(=O)[C@H](Cc1ccccc1)NC(=O)[C@H](CO)NC(=O)[C@H](CO)NC(=O)[C@H](CCCNC(=N)N)NC(=O)[C@H](CCC(N)=O)NC(=O)[C@H](CC(C)C)NC(=O)[C@H](Cc1ccccc1)NC(=O)[C@H](Cc1c[nH]cn1)NC(=O)[C@H](C)NC(=O)[C@H](CC(C)C)NC(=O)[C@H](CCCNC(=N)N)NC(=O)[C@H](CCC(=O)O)NC(=O)[C@@H](NC(=O)[C@H](C)NC(=O)[C@@H]1CCNC(=O)C[C@H](NC(=O)[C@H](CCCNC(=N)N)NC(=O)CC[C@H](NC(=O)CCCCCCCCCCCCCCCCCCC(=O)O)C(=O)O)C(=O)NCC(=O)N[C@@H]([C@@H](C)O)C(=O)N[C@@H](C)C(=O)N[C@@H]([C@@H](C)O)C(=O)N1)[C@@H](C)O [Compound 2, [19CD]-isoGlu-RD()GTAT-Dab()-ATERLAHFLQRSSF-Gly(Me)-A-Ile(Me)-LSSTEVGSNT-Hyp-NH2] ({C20 diacid-γGlu}-RDGTAT[Dab]ATERLAHFLQRSSF[Sar]A[NMeI]LSSTEVGSNT[Hyp]-NH2; lactam 2-7)	10.49	9.98	–	–	–
N-α-[(S)-4-carboxy-4-(19-carboxynonadecanoylamino)butyryl]-[Arg1,Glu14,His17,Pro37]-pramlintide [NN96, reference compound]	–	–	3.0%	10.1%	33.2%
